Where “and” joins values, the source holds several entries; their conditions need not be identical. Equal entries are not always repeated.
How the values were obtained:
Type in all cases: cell-based
[1] = test system: Pseudomonas aeruginosa PAO1; experiment: Minimum inhibitory concentration in LB broth, P. aeruginosa; conditions: for Relative to AgNO3: efficacy per mole from MIC values
Escherichia coli HB101 [2] = experiment: Minimum inhibitory concentration in LB broth, E. coli; conditions: for Relative to AgNO3: efficacy per mole from MIC values;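 for all read-outs here: broth dilution MIC, test compounds first taken up in DMSO, then serially diluted in LB medium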
Escherichia coli HB101 [3] = experiment: Disk sensitivity test (modified Kirby-Bauer), E. coli;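 note: filter disk loaded with compound in DMSO laid on an LB agar bacterial lawn, kept overnight at 37 °C, then the inhibition zone around the disk is measured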
Protocol: (§1) Filter disks were provided as sterile filter paper (about 6 mm in diameter) and spotted with 20 μL of a selected compound. Each compound was initially dissolved in dimethylsulfoxide (DMSO); any subsequent dilutions were also made in DMSO. Each filter was placed on an LB agar plate spread with 100 μL of a bacterial culture that had been grown overnight in suitable LB broth. Plates were incubated overnight at 37° C., after which, the extent of growth inhibition around each filter disk was measured. Bacterial strains included Staphylococcus aureus (ATCC 25923), Pseudomonas aeruginosa PAO1, Bacillus subtilis W168 and Escherichia coli HB101. […] The latter two strains are non-pathogenic Gram-positive and Gram-negative bacterial strains, respectively.

Bacillus subtilis W168 [4] = experiment: Minimum inhibitory concentration in LB broth, B. subtilis; conditions: for Relative to AgNO3: efficacy per mole from MIC values
Bacillus subtilis W168 [5] = experiment: Disk sensitivity test (modified Kirby-Bauer), B. subtilis;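 note: Compound-loaded filter disks on LB agar plates seeded with a bacterial lawn, plates held overnight at 37 °C, then the clear zone around each disk measured, compounds in DMSO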
Protocol: as §1

[6] = test system: Staphylococcus aureus (ATCC 25923); experiment: Minimum inhibitory concentration in LB broth, S. aureus; conditions: for Relative to AgNO3: efficacy per mole from MIC values
[7] = test system: Pseudomonas aeruginosa PAO1; experiment: Disk sensitivity test (modified Kirby-Bauer), P. aeruginosa;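 note: Compound-loaded filter disks on LB agar lawns, DMSO as solvent, zone of inhibition around each disk read after overnight incubation at 37 °C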
Protocol: as §1

[8] = test system: Staphylococcus aureus (ATCC 25923); experiment: Disk sensitivity test (modified Kirby-Bauer), S. aureus;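 note: Compound-loaded filter disks on LB agar plates seeded with a confluent bacterial lawn, compound dissolved in DMSO, plates kept overnight at 37 °C, then inhibition zone around disk measured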
Protocol: as §1

[9] = test system: Gram positive and Gram negative bacteria; experiment: Antimicrobial activity, summary of TABLES 16-18
Protocol: The new class of fluorinated triazapentadiene compounds with and without metal complexation as described herein were analyzed for antibacterial activity against several bacterial strains (both Gram positive and Gram negative). Methods for antimicrobial analysis included a modified Kirby-Bauer method and a determination of their minimum inhibitory concentrations. In brief, the modified Kirby-Bauer method relied on placement of a filter disk impregnated with a desired compound on a solid growth medium. Bacteria were grown to a confluent lawn and the extent of growth inhibition was measured (e.g., as an extent/percentage of a clear zone on the disk and/or solid medium).
For MIC assessment, compounds were initially dissolved in DMSO and serial dilutions of soluble compounds were made in LB broth.

[10] = 1.00 × 10^0 μg/ml (printed 5.9 × 10^−6 mM)
[11] = 1.00 × 10^1 μg/ml (5.9 × 10^−5 mM)
[12] = 1.00 × 10^2 μg/ml (5.9 × 10^−4 mM [sic])
[13] = 1.00 × 10^3 μg/ml (printed 5.9 × 10^−3 mM)
[14] = 1.00 × 10^4 μg/ml (printed 5.9 × 10^−2 mM)

O=[N+]([O-])[O-].[Ag+] [AgNO3, reference compound]
MIC [1]: 3.12 μg/ml and 1.84 × 10^−2 mM
Relative to AgNO3 [1]: 1.00
MIC (Escherichia coli HB101 [2]): 10.0 μg/ml and 5.89 × 10^−2 mM
Relative to AgNO3 (Escherichia coli HB101 [2]): 1.00
Diameter of the zone of growth inhibition (Escherichia coli HB101 [3]; [10]): 7.0 mm
Diameter of the zone of growth inhibition (Escherichia coli HB101 [3]; [11]): 8.5 mm
Diameter of the zone of growth inhibition (Escherichia coli HB101 [3]; [12]): 13.0 mm
Diameter of the zone of growth inhibition (Escherichia coli HB101 [3]; [13]): 14.0 mm
Diameter of the zone of growth inhibition (Escherichia coli HB101 [3]; [14]): 15.0 mm
MIC (Bacillus subtilis W168 [4]): 25.00 μg/ml and 1.47 × 10^−1 mM
Relative to AgNO3 (Bacillus subtilis W168 [4]): 1.00
Diameter of the zone of growth inhibition (Bacillus subtilis W168 [5]; [10]): 9.0 mm
Diameter of the zone of growth inhibition (Bacillus subtilis W168 [5]; [11]): 9.5 mm
Diameter of the zone of growth inhibition (Bacillus subtilis W168 [5]; [12]): 13.0 mm
Diameter of the zone of growth inhibition (Bacillus subtilis W168 [5]; [13]): 13.0 mm
Diameter of the zone of growth inhibition (Bacillus subtilis W168 [5]; (printed 5.9 × 10^−2 mM)): 16.0 mm
MIC [6]: 12.50 μg/ml and 7.36 × 10^−2 mM
Relative to AgNO3 [6]: 1.00
Diameter of the zone of growth inhibition [7, 10]: 6.0 (NZ) mm
Diameter of the zone of growth inhibition [7, 11]: 6.0 (NZ) mm
Diameter of the zone of growth inhibition [7, 12]: 9.5 mm
Diameter of the zone of growth inhibition [7, 13]: 12.5 mm
Diameter of the zone of growth inhibition [7, 14]: 16.0 mm
Diameter of the zone of growth inhibition [8, 10]: 6.0 (NZ) mm
Diameter of the zone of growth inhibition [8, 11]: 7.0 mm
Diameter of the zone of growth inhibition [8, 12]: 8.5 mm
Diameter of the zone of growth inhibition [8, 13]: 9.0 mm
Diameter of the zone of growth inhibition [8, 14]: 10.5 mm

Fc1c(F)c(F)c(N=C(N=C(Nc2c(F)c(F)c(F)c(F)c2F)C(F)(F)C(F)(F)C(F)(F)F)C(F)(F)C(F)(F)C(F)(F)F)c(F)c1F [[N{(C3F7)C(C6F5)N}2]H]
MIC [1]: 2643.48 μg/ml and 3.58 mM
Relative to AgNO3 [1]: 5.14 × 10^−3
MIC (Escherichia coli HB101 [2]): 2643.48 μg/ml and 3.58 mM
Relative to AgNO3 (Escherichia coli HB101 [2]): 1.65 × 10^−2
Diameter of the zone of growth inhibition (Escherichia coli HB101 [3]; 5.7 × 10^0 mM): 9.0 mm
Diameter of the zone of growth inhibition (Escherichia coli HB101 [3]; 5.7 × 10^1 mM): 9.5 mm
Diameter of the zone of growth inhibition (Escherichia coli HB101 [3]; 5.7 × 10^−1 mM): 9.0 mm
Diameter of the zone of growth inhibition (Escherichia coli HB101 [3]; 5.7 × 10^−2 mM): 8.5 mm
Diameter of the zone of growth inhibition (Escherichia coli HB101 [3]; 5.7 × 10^−3 mM): 7.0 mm
MIC (Bacillus subtilis W168 [4]): 1.57 μg/ml and 2.12 × 10^−3 mM
Relative to AgNO3 (Bacillus subtilis W168 [4]): 69.34
Diameter of the zone of growth inhibition (Bacillus subtilis W168 [5]; 5.7 × 10^0 mM): 39.0 mm
Diameter of the zone of growth inhibition (Bacillus subtilis W168 [5]; 5.7 × 10^1 mM): 71.0 mm
Diameter of the zone of growth inhibition (Bacillus subtilis W168 [5]; 5.7 × 10^−1 mM): 47.0 mm
Diameter of the zone of growth inhibition (Bacillus subtilis W168 [5]; 5.7 × 10^−2 mM): 22.0 mm
Diameter of the zone of growth inhibition (Bacillus subtilis W168 [5]; 5.7 × 10^−3 mM): 10.0 mm
Diameter of the zone of growth inhibition (Bacillus subtilis W168 [5]; 5.7 × 10^−4 mM): 8.0 mm
Diameter of the zone of growth inhibition (Bacillus subtilis W168 [5]; 5.7 × 10^−5 mM): 6.0 (NZ) mm
Diameter of the zone of growth inhibition (Bacillus subtilis W168 [5]; 5.7 × 10^−6 mM): 6.0 (NZ) mm
Diameter of the zone of growth inhibition (Bacillus subtilis W168 [5]; 5.7 × 10^−7 mM): 6.0 (NZ) mm
MIC [6]: 1.57 μg/ml and 2.12 × 10^−3 mM
Relative to AgNO3 [6]: 34.71
Diameter of the zone of growth inhibition ([7]; 5.7 × 10^0 mM): 8.0 mm
Diameter of the zone of growth inhibition ([7]; 5.7 × 10^1 mM): 9.0 mm
Diameter of the zone of growth inhibition ([7]; 5.7 × 10^−1 mM): 8.0 mm
Diameter of the zone of growth inhibition ([7]; 5.7 × 10^−2 mM): 8.0 mm
Diameter of the zone of growth inhibition ([7]; 5.7 × 10^−3 mM): 7.0 mm
antimicrobial activity (in words) [9]: Effective
Diameter of the zone of growth inhibition ([8]; 5.7 × 10^0 mM): 37.5 mm
Diameter of the zone of growth inhibition ([8]; 5.7 × 10^1 mM): 75.0 mm
Diameter of the zone of growth inhibition ([8]; 5.7 × 10^−1 mM): 40.0 mm
Diameter of the zone of growth inhibition ([8]; 5.7 × 10^−2 mM): 19.0 mm
Diameter of the zone of growth inhibition ([8]; 5.7 × 10^−3 mM): 9.0 mm
Diameter of the zone of growth inhibition ([8]; 5.7 × 10^−4 mM): 6.0 (NZ) mm
Diameter of the zone of growth inhibition ([8]; 5.7 × 10^−5 mM): 6.0 (NZ) mm
Diameter of the zone of growth inhibition ([8]; 5.7 × 10^−6 mM): 6.0 (NZ) mm
Diameter of the zone of growth inhibition ([8]; 5.7 × 10^−7 mM): 6.0 (NZ) mm
